From ChEMBL document CHEMBL5550196, “Design, synthesis, and anticancer assessment of structural analogues of (E)-1-((3,4,5-trimethoxybenzylidene)amino)-4-(3,4,5-trimethoxyphenyl)imidazo[1,2-a]quinoxaline-2-carbonitrile (6b), an imidazo[1,2-a]quinoxaline-based non-covalent EGFR inhibitor” (RSC Med Chem, 2024) come the findings set out here.

Molecules are shown by their SMILES. Activity calls are given as the source filed them. No cut-off for these calls is given here. Where only a bound is given, the exact number is not on record here.

Assay [1] concerns A549. Put plainly: Inhibition of oxidative stress in human A549 cells assessed as reduction in ROS production at 1 to 5 uM by DCFH-DA staining based microplate reader analysis. In kind it is functional, cell-based. The conditions noted are these: dose 1-5 µM.
The subject of assay [2] is A549. Nature of the assay: Induction of mitochondrial membrane hyperpolarization in human A549 cells at 1 to 5 uM by JC-1 staining based fluorescence microplate reader assay. In kind it is functional, cell-based. Particulars: dose 1-5 µM.
The test system of assay [3] is A549. Put plainly: Downregulation of MAP2K gene expression in human A549 cells by SYBR green dye based qPCR analysis. In kind it is functional, cell-based. On the technique in general: In qPCR the cycle at which signal appears reflects the starting amount.
In assay [4] the test system is A549. Put plainly: cells. The conditions noted are these: Homo sapiens, A549, 48 h.
For assay [5], the system named is A549. Nature of the assay: Downregulation of KRAS gene expression in human A549 cells by SYBR green dye based qPCR analysis. The class given is functional, cell-based.
Assay [6] has as its system A549. Nature of the assay: Downregulation of EGFR gene expression in human A549 cells by SYBR green dye based qPCR analysis. In kind it is functional, cell-based.
A further assay relates to MCF7. Put plainly: cells. Particulars: Homo sapiens, MCF7, 48 h.
A further assay has as its system MDA-MB-231. Put plainly: cells. The conditions noted are these: Homo sapiens, MDA-MB-231, 48 h.
For assay [7], the target named is T1, Epidermal growth factor receptor (Homo sapiens, UniProt P00533). Particulars: dose 200.0 nM, time 2.0 hrs.
T1 sequence (P00533 whole entry): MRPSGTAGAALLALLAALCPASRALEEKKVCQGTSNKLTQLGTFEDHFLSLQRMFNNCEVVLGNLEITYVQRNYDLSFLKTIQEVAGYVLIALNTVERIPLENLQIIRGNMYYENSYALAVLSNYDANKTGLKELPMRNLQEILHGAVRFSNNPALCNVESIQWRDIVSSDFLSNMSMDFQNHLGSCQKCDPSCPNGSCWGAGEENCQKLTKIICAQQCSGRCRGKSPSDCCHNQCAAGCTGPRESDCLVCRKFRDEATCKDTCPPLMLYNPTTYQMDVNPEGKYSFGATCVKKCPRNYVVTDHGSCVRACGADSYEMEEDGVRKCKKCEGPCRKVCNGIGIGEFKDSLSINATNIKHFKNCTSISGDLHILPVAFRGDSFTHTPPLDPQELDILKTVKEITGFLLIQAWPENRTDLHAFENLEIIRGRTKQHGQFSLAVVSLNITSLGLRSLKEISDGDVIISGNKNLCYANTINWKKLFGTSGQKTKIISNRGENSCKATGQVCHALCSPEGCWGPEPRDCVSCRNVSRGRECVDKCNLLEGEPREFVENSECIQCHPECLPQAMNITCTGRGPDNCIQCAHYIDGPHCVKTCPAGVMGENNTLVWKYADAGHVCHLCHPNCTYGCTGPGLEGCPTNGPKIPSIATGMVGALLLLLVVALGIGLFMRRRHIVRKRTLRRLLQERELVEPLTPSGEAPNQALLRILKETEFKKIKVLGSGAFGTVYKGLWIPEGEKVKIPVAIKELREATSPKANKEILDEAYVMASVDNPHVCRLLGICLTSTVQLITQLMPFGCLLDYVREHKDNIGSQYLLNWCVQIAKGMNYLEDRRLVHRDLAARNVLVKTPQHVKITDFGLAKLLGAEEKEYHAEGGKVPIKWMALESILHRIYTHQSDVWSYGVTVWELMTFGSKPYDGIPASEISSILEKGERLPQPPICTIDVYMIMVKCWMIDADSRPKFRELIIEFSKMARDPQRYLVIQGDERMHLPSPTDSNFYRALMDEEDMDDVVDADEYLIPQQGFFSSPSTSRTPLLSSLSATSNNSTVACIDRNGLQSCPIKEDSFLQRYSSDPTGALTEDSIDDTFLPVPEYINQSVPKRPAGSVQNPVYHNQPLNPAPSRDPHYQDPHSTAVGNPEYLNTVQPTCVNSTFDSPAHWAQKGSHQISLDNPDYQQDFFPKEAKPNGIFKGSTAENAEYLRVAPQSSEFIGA
Assay [8] addresses T1, Epidermal growth factor receptor. Nature of the assay: Inhibition of EGFR (unknown origin) mediated phosphorylation incubated for 2 hrs in presence of ATP by Z-LYTE assay.

For `COc1cc(-c2nc3ccccc3n3c(/N=C/c4ccsc4)c(C#N)nc23)cc(OC)c1OC`, the inhibition result in the assay on A549 [1] is “Active”. The outcome with A549 [2], in the assay with A549 [3], in the assay on A549 [5] and in the assay on A549 [6] was Active. Moreover, the figures for the IC50 in the assay on A549 [4], in the assay on MCF7 and in the assay with MDA-MB-231 were 1.34 µM, 14.3 µM and over 25 µM, respectively.

In the case of `COc1cc(-c2nc3ccccc3n3c(/N=C/c4ccncc4)c(C#N)nc23)cc(OC)c1OC`, the half-inhibitory concentration (IC50) with A549 [4] turned out to be 16.5 µM; in the assay on MCF7, 13.1 µM; in the assay with MDA-MB-231, 8.88 µM.

Turning to `COc1cc(-c2nc3ccccc3n3c(/N=C/c4ccc(Cl)cc4)c(C#N)nc23)cc(OC)c1OC`, the half-inhibitory concentration (IC50) with A549 [4] worked out at 4.43 µM; in the assay on MCF7, 3.82 µM; with MDA-MB-231 it was 5.94 µM.

Consider `COc1cc(-c2nc3ccccc3n3c(/N=C/c4ccc(N(C)C)cc4)c(C#N)nc23)cc(OC)c1OC`, for which the IC50 was found to be 13.2 µM in the assay on A549 [4], 24 µM in the assay on MCF7 and 6.41 µM in the assay with MDA-MB-231.

As to `COc1cc(-c2nc3ccccc3n3c(/N=C/c4cc(F)ccc4[N+](=O)[O-])c(C#N)nc23)cc(OC)c1OC`, the IC50 was 3.25 µM with A549 [4], 9.99 µM in the assay with MCF7 and 11.4 µM in the assay with MDA-MB-231.

As to `COc1cccc(/C=N/c2c(C#N)nc3c(-c4cc(OC)c(OC)c(OC)c4)nc4ccccc4n23)c1`, the inhibition result with A549 [1] is “Active”. The result with A549 [2], with A549 [3], with A549 [5] and with A549 [6] was Active. For the same compound, the 50% inhibitory concentration (IC50) with A549 [4] was found to be 3.53 µM; in assay [8], 0.0759 µM; in the assay on MCF7 it was 13.6 µM; with MDA-MB-231, 5.77 µM. The compound also had an inhibition in assay [7] of over 50%.

Turning to `COc1cc(-c2nc3ccccc3n3c(/N=C/c4c[nH]c5ccccc45)c(C#N)nc23)cc(OC)c1OC`, the half-inhibitory concentration (IC50) is over 25 µM in the assay with A549 [4], 8.99 µM in the assay on MCF7 and over 25 µM in the assay on MDA-MB-231.

As for `C#Cc1cccc(Nc2ncnc3cc(OCCOC)c(OCCOC)cc23)c1`, the outcome in the assay on A549 [3], in the assay on A549 [5] and with A549 [6] was Active.

With `COc1cc(-c2nc3ccccc3n3c(/N=C/c4cccnc4)c(C#N)nc23)cc(OC)c1OC`, the half-maximal inhibitory concentration (IC50) in the assay with A549 [4] is 4.27 µM; with MCF7, 23.9 µM; in the assay with MDA-MB-231, 8.66 µM.

What is called inhibition is the percentage by which the read-out fell short of the control. One may read the IC50 as the concentration at which inhibition is half-maximal.
